experiment: Human HepG2 cell viability assay in 384 well format; type: toxicity, cell-based; set-up: dose 125 nL, time 70.5 hour; cytotoxicity at 70.5 h: concentration not given beside the values; conditions: HepG2 cells, read-out: Inhibition

Row | SMILES | cytotoxicity at 70.5 h [%]
1 | Cn1cc(C(=O)N2CCCC(Cc3nccs3)C2)cn1 (stereo not given) | -1.09
2 | Cc1sc2ncnc(N3CCCC3Cn3cccn3)c2c1C (stereo not given) | -11.4
3 | Clc1cncc(NCc2cccc(OCCN3CCOCC3)c2)n1 | -8.21
4 | CCN1CCC2(COCc3c(C)nc(N4CCOCC4)nc32)C1 (stereo not given) | 11.1
5 | COc1ccc(S(=O)(=O)N2CCc3ccc(Cl)cc32)cc1C(=O)O | 0.6
6 | CCn1cc(-c2cc(C(F)F)n3nc(CCC(=O)O)nc3n2)cn1 | -2.48
7 | CN1CCN(c2cc(CNC(=O)c3cccnc3O)ccn2)CC1 | -1.85
8 | CCC[C@@H]1CN(Cc2cnc(-c3cccs3)nc2)C[C@H]1C(=O)O | -0.697
9 | O=S(=O)(c1cccnc1)N1C[C@@H]2CC[C@H](C1)N(Cc1ccccn1)C2 | -5.11
10 | CCN(CC)c1ccc(NC(=O)NCC2CCOC2)cn1 (stereo not given) | -12.2
11 | CN1CCN(C2CCN(CCOc3cccc(Cl)c3)CC2)C1=O | -7.02
12 | Cc1cn2nc(N3CCCC3C(=O)N3CCSCC3)sc2n1 (stereo not given) | -8.52
13 | CCn1cc(NC(=O)NCC(O)COc2cccc(F)c2)cn1 (stereo not given) | -4.45
14 | CCc1ccc(OCCN(C)C(=O)c2ccncc2Cl)cc1 | -5.33
15 | O=c1c2cc3c(cc2nnn1Cc1ccccc1)OCCO3 | -2.96
16 | O=C(c1ccon1)N1CCc2ncnc(NCc3cccnc3)c2CC1 | -5.39
17 | Cc1nccn1Cc1nnc(C2CCN(c3ccncc3F)CC2)n1C | 17.7
18 | CCNc1cc2c(nn1)CCN(C(=O)C1CCc3ccccc31)C2 (stereo not given) | -0.738
19 | O=C(CCN1CCOCC1)Nc1cccc(CNCc2ccsc2)c1 | 14.1
20 | COCCCN1CCCN(C(C)c2nc(C3CC3)no2)CC1 (stereo not given) | -4.41
21 | O=C1COC2(CCN(Cc3ccoc3)CC2)CN1c1ccccc1 | 5.1
22 | Cc1cc(CN2CCN(C(=O)NC(C)c3ccncc3)CC2)on1 (stereo not given) | -9.79
23 | CN(C)CCNc1cc(-c2ncccc2O)c2cc[nH]c2n1 | -7.75

Row | SMILES | cytotoxicity at 70.5 h [%]
24 | Cc1ccc(C(C)(O)CNC(=O)c2sccc2Br)o1 (stereo not given) | 4.05
25 | O=C(c1cnccn1)N1C[C@@H]2C[C@@H](c3nc(C4CC4)cs3)O[C@@H]2C1 | -1.34
26 | CN1CCCCC1CCC(=O)NCCCn1nccc1C1CC1 (stereo not given) | -11.4
27 | O=C1NCCCCC1NCc1csc(-c2ccccn2)n1 (stereo not given) | -12.2
28 | NCC1CN(Cc2cn(CCC(N)=O)c3ccccc23)CCO1 (stereo not given) | 2.17
29 | Cn1cc(NC(=O)C2CC(=O)N(c3n[nH]c4cccc(F)c34)C2)cn1 (stereo not given) | -26.5
30 | Cc1ccsc1CN(Cc1ccccn1)CC(C)C | -6.06
31 | Cc1ccc([C@H]2CN(C(C)C)C[C@@H]2NS(=O)(=O)N2CCOCC2)o1 | -5.29
32 | CN1CCC2(COCCN(Cc3cccc(C#N)c3)C2)C1 (stereo not given) | -0.504
33 | COCCN1CCc2cc(C(=O)NC(C)C)c(NCC(C)C)nc2CC1 | -16.4
34 | O=C(NCC(Cc1cccc(F)c1)N1CCCC1=O)C1CCCC1 (stereo not given) | -13.2
35 | Cc1cc2nc(C(C)C)cc(N3CCSCC3)n2n1 | 16.2
36 | CCc1ncc2c(n1)CN(c1cc(NC3CC3)nc(N)n1)C2 | -8.23
37 | O=C(c1cccnc1O)N1CCN(CCc2cccs2)CC1 | -6.9
38 | O=C(NCCCSC1CCCCC1)C1NCCc2[nH]cnc21 (stereo not given) | -1.27
39 | CC(CNC(=O)c1cn(-c2ccccc2)nn1)Cn1cccn1 (stereo not given) | 13.9
40 | CN(C)CCN1CCO[C@H]2CN(C(=O)C3CCOCC3)C[C@H]21 | -4.53
41 | CN(C)c1ccc(NC(=O)NCC2CCOC2)cn1 (stereo not given) | -9.11
42 | Cc1noc(-c2ccc(N3CCN(Cc4nccn4C)CC3)nc2)n1 | -15.7
43 | Cc1cc(C)c(C#N)c(NCCn2cnnc2C(C)C)n1 | 0.173
44 | Cc1cc(O)cc(=O)n1CCCC(=O)Nc1n[nH]c2cc(Br)ccc12 | -13.4
45 | COCC(=O)N1CCc2ncc(Cn3cncn3)n2CC1 | -16.6
46 | Cc1cc(=O)c(C(=O)N2CCCCC2c2ccc(F)cc2)c[nH]1 (stereo not given) | -4.63

Row | SMILES | cytotoxicity at 70.5 h [%]
47 | Cc1cnc(NS(=O)(=O)c2ccccc2)s1 | -10
48 | O=C(NC1CCCN(c2ccc(OC(F)F)cc2)C1)c1cc[nH]n1 (stereo not given) | -11.9
49 | CCn1cc(S(=O)(=O)NC2(CN3CCOCC3)CCCCC2)c(C)n1 | -0.203
50 | Cc1nc2c(c(NCC(c3ccccc3C)N(C)C)n1)CCNC2 (stereo not given) | 25.9
51 | CCCc1n[nH]c(C2CN(C(=O)CCCn3ccnc3)CCO2)n1 (stereo not given) | -0.218
52 | CCC(C)NC(=O)N1CCCn2cnc(CO)c2C1 (stereo not given) | -7.63
53 | CN(Cc1nncn1C)c1nccc(C2CCCC2)n1 | 6.4
54 | Cc1ncsc1CN1C[C@@H]2COC[C@]2(C(=O)NCC2CC2)C1 | -3.67
55 | CCNc1ncc(C(=O)N2CCOC(CCCC(C)C)C2)cn1 (stereo not given) | -7.7
56 | O=C(COCC1CC1)N1CCN(C(=O)Cc2ccccn2)CC1 | -1.46
57 | CC(C)n1nc(Cn2cccn2)c2c1CN(CC1CCOC1)C2 (stereo not given) | -4.31
58 | Cc1csc(C(Cc2ccsc2)NC(=O)c2cc(=O)n(C)c(=O)n2C)n1 (stereo not given) | -4.94
59 | CN(C)C(=O)N1CCC2(CC1)NC(=O)c1ccccc12 | -2.99
60 | CNC(=O)Cc1ccc(NC(=O)NC2(c3cccc(F)c3)CC2)cc1 | -3.37
61 | COc1cccc(C(=O)N2CCCC(c3cc(C)[nH]n3)C2)c1OC (stereo not given) | -17.6
62 | O=C(CN1CCCc2c(F)cc(Br)cc21)N1CCN(C(=O)C2CC2)CC1 | 17.8
63 | CN1CC2(CCCCN2C(=O)c2ccsc2)CC1=O (stereo not given) | 5.12
64 | Cc1cc(NC(=O)N2CCN(c3cccs3)CC2)ccc1C(N)=O | 8.16
65 | Cc1cc(C)c(S(N)(=O)=O)cc1C(=O)NCCN1CCC(C)CC1 | -12.9
66 | Cc1noc(C)c1C1CCCN1C(=O)CN1C(=O)OC(C)(C)C1=O (stereo not given) | 26.8
67 | COC(=O)Cn1c(=O)nc2n1C(=O)N(c1cccc(Cl)c1)C2 | -5.07
68 | NC(=O)c1cnn2c1NCC(CNCCc1cccs1)C2 (stereo not given) | -5.82
69 | O=C(C1CC2(CCNCC2)CN1)N1CCN(c2cccc(Cl)c2Cl)CC1 (stereo not given) | -1.58

Row | SMILES | cytotoxicity at 70.5 h [%]
70 | CCn1cc(-c2nn3c(C(C)C)nnc3s2)c(C)n1 | -14.2
71 | CN(CCCO)C(=O)c1cc(COc2ccc3c(c2)CCCC3)on1 | -7.55
72 | c1ccc(C2CN(C3CC3)CC3(CCN(Cc4ncc[nH]4)CC3)C2)cc1 (stereo not given) | -6.48
73 | CC(C)c1nnc(CN2CCc3ccc(S(N)(=O)=O)cc32)o1 | -0.0777
74 | CS(=O)(=O)N1CCCN(c2nccn3cnnc23)CC1 | -6.97
75 | N#Cc1ccc(F)c(CSCCN2CCOCC2)c1 | -7.03
76 | Fc1cnc(N2CC[C@@H](N3CCOCC3)[C@@H]2Cc2ccccc2)nc1 | 8.96
77 | CC(=O)N1CCOC[C@H](OCC(=O)N(C)C)C1 | 0.496
78 | Cc1cc(C2CCCN2C(=O)c2cnn(C)c2)on1 (stereo not given) | 14
79 | O=C1CC(C(=O)N2CCc3sccc3C2)CN1Cc1cccnc1 (stereo not given) | 2.13
80 | CC(C)CCn1[nH]c(CNc2ccc(F)cc2)nc1=O | -10.3
81 | O=C(c1cncc(F)c1)N1CCC(c2ncc[nH]2)CC1 | -7.04
82 | CN1CCN(Cc2cn3c(n2)CNCC3)CC1 | 23.1
83 | COCCN(CCOC)C(=O)c1ccn(-c2ccc3ccccn23)n1 | 11.4
84 | CCc1nc(CN2CCCN(c3ncnc4sccc34)CC2)no1 | 16.3
85 | CN1CC2(CCCN(Cc3nnc(-c4cccc(F)c4)o3)C2)OC1=O (stereo not given) | -5.83
86 | COCCN(Cc1cnn(C)c1)Cc1ccc(C)o1 | -9.85
87 | COc1ncnc2c1CCN(Cc1cccs1)CC2 | -2.23
88 | Cc1ccccc1-c1cc(C(=O)NCCN2CCCS2(=O)=O)[nH]n1 | -15.5
89 | O=C(NC(CN1CCCC1)c1ccccc1)c1c(O)cc(F)cc1F (stereo not given) | -1.92
90 | CCc1n[nH]c(C2CN(Cc3ncc(CC)o3)CCO2)n1 (stereo not given) | 51.9
91 | Cc1ccoc1C(=O)N1CC[C@H]2O[C@@H](C)C[C@H]2C1 | -10.2
92 | Cc1ncnc2c1CCN(C(=O)c1cccc(F)c1)CC2 | -5.99

Row | SMILES | cytotoxicity at 70.5 h [%]
93 | Cc1cnn(CCNCc2csc(-c3cccs3)n2)c1 | -4.79
94 | Cc1cccc(-c2ccc(C(=O)N3CCN(C4CC4)CC3)c(=O)[nH]2)c1 | 22.8
95 | O=C(NCc1ccco1)N1CCC(n2cc(-c3ccccn3)nn2)CC1 | 0.624
96 | CCC(=O)NCC(=O)NCC(C)(C)c1cccc(Br)c1 | -5.47
97 | CCc1nc(C2CCCN(C(=O)c3cc(C(C)C)[nH]n3)C2)no1 (stereo not given) | -3.59
98 | Cc1ccc(C(=O)N2CCCCC2c2[nH]ncc2S(C)(=O)=O)cn1 (stereo not given) | -2.26
99 | Cc1ccnc(N2Cc3cnn(Cc4ccc(F)cc4)c3C2)n1 | 15.1
100 | COCCN1C(=O)[C@H]2CC[C@@H]1CN(S(=O)(=O)c1ccc(OC)cc1)C2 | -3.09
101 | Cc1ncc(-c2ccnc(N3CCN(C)CC3)n2)c(-c2cccnc2)n1 | -13.1
102 | CC(C)CC(=O)Nc1cccc(CNCc2cccs2)c1 | -3.67
103 | CN(C)C(=O)N1C[C@H]2CN(Cc3cccc(F)c3)C(=O)[C@H]2C1 | -9.2
104 | CCC(O)CN1CCN(C(=O)c2csc(COC)n2)CC1 (stereo not given) | -3.48
105 | O=C(Cc1csc(-c2ccco2)n1)N1CCN(c2nccs2)CC1 | -5.89
106 | CCc1nnc(CN2CC(n3cccn3)C2)o1 | -4.74
107 | Cc1nc(C2CCCN2Cc2cc(Cl)c3c(c2)OCCCO3)no1 (stereo not given) | -7.15
108 | O=C(c1ccc(-n2ccnn2)cc1)N(CC1CC1)c1cccnc1 | 5.29
109 | Brc1ccc(NCCCOC2CCOCC2)nc1 | -1.01
110 | CCc1nc(CN2CCOC(CNc3cccnn3)C2)cs1 (stereo not given) | 10.3
111 | CN(C)CC(=O)N1CC[C@H]2OCC[C@@]2(COCC2CC2)C1 | -11.9
112 | COc1ccccc1CC(=O)N1C[C@H]2CC[C@@H]1CN(Cc1cscn1)C2 | -12.1
113 | CCc1nc(C2CCCN(C(=O)c3ccc(O)nc3)C2)no1 (stereo not given) | 3.29
114 | O=C(Nc1cnn(CC(=O)N2CCCCO2)c1)c1ccsc1 | -2.35
115 | CCN1CCC(CNCc2cc(C)ccc2OC)C1 (stereo not given) | -8.51
